Marks after values point to notes of the source that are not given here.
Tests used:
[1] = In vivo pharmacokinetic evaluation in mice (IV and PO); conditions: CD-1 mice
Experimental: CD-1 mice, after fasting overnight (free drinking), are divided into tail vein (IV) and gavage administration (PO) groups. The tail vein administration group collected 0.1 mL of blood from the orbital venous plexus before administration and 5 minutes, 15 minutes, 0.5 hours, 1 hour, 2 hours, 4 hours, 8 hours, 12 hours, and 24 hours after administration, and sample centrifugation at 4° C. for 5 minutes, and stored at −70° C. for testing. […] The plasma parent drug concentration was determined by LC-MS/MS.

[2] = tested on: DSS-induced acute enteritis mouse model; experiment: DSS-induced acute enteritis mouse model (body weight, DAI score, colon length); assay type: in vivo, C57BL/6 mice
Experimental: (§1) Grouping and modeling: One day before the start of the experiment, all C57BL/6 mice were ear-labeled and recorded, and the animals with appropriate weight and normal status were selected for grouping (Sham group, vehicle group and embodiment 33 group). 10 animals per group; 3.5% dextran sulfate sodium salt (DSS, MP, molecular weight 36000-50000) prepared with sterile water is loaded into the drinking bottle in the vehicle and the 33 testing groups of rearing cages in the embodiment (100 mL per cage, replace the 3.5% DSS solution after 2-3 days with freshly prepared solution), and the animals in the vehicle and the 33 testing groups of the embodiment are free to drink for 10 consecutive days. The Sham group drank the normal water not containing DSS. Embodiment 33 compound is administered orally BID.
1) Body Weight Change (%)=BWi/BW0×100%, BWi is the average body weight of mice in the group on a given day, BW0 is the average body weight of mice before the start of treatment.
2) DAI score: The Disease Activity Index (DAI) scoring criteria are as follows:
3) Colon length: After the last dose, all animals were euthanized with CO2 and dissected. The entire colon (anus-cecum section) was isolated, moistened with ice-cold saline, smoothed and laid flat. On the dissecting board, without applying external force to stretch, use a digital vernier caliper to measure the length of the colon and record it, and take photos for retention.

[3] = tested on: IL-1β; experiment: Inflammatory factor IL-1β in serum and colon, DSS-induced acute enteritis mouse model; assay type: in vivo, C57BL/6 mice; conditions: 50 mpk, BID
Experimental: as §1
4) Detection of inflammatory factors: Blood was collected from all animals under their jaws, and serum was separated; serum and colon tissue IL-10 and IL-18 cytokines were detected according to the detection method in the Effect Embodiment 4.

[4] = Safety investigation, oral administration to SD rats for 14 consecutive days; conditions: 14 days
[5] = 50 mpk P.O Bid, 3.5% DSS, day 11, n = 10

Question: For `Cc1nc(N[C@@H]2CCCC[C@H]2O)nnc1-c1ccc(C(F)(F)F)cc1O` [Embodiment 33], which F ([1]; PO, 20 mg/kg) is on record?
Answer: 98.0%

Question: And the AUC ([1]; mouse, plasma, IV, 3 mg/kg)?
Answer: 4600 ng·h/mL

Question: What about the clearance ([1]; mouse, plasma, IV, 3 mg/kg) of the same molecule?
Answer: 10.9 mL/min/kg

Question: And the half-life ([1]; mouse, plasma, IV, 3 mg/kg)?
Answer: 4.89 h

Question: What about the Vd ([1]; mouse, plasma, IV, 3 mg/kg, read-out: Vss) of the same molecule?
Answer: 2.6 L/kg

Question: And the AUC ([1]; mouse, plasma, PO, 20 mg/kg)?
Answer: 30000 ng·h/mL

Question: What about the Cmax ([1]; mouse, plasma, PO, 20 mg/kg) of the same molecule?
Answer: 8520 ng/mL

Question: And the half-life ([1]; mouse, plasma, PO, 20 mg/kg)?
Answer: 3.6 h

Question: And the “curative effect on animals with DSS-induced acute enteritis (IBD)” value ([2]; 50mpk P.O Bid)?
Answer: significant curative effect

Question: What about the “Day 11 weight change (%)” value [2, 5] of the same molecule?
Answer: 88.09%

Question: What about the “Rate of body weight loss (%)” value [2, 5] of the same molecule?
Answer: 11.91%**

Question: And the DAI score ([2]; 50 mpk P.O Bid, Day 3)?
Answer: 0.00

Question: What about the DAI score ([2]; 50 mpk P.O Bid, Day 5) of the same molecule?
Answer: 2.60 ± 0.45

Question: What about the DAI score ([2]; 50 mpk P.O Bid, Day 7) of the same molecule?
Answer: 4.40 ± 0.6

Question: And the DAI score ([2]; 50 mpk P.O Bid, Day 9)?
Answer: 6.20 ± 0.68

Question: What about the DAI score ([2]; 50 mpk P.O Bid, Day 11) of the same molecule?
Answer: 7.80 ± 0.63

Question: What about the Colon length ([2]; 50 mpk P.O Bid, after the last dose, n = 10) of the same molecule?
Answer: 58.27 ± 1.48 mm

Question: And the IL-1β in serum [3]?
Answer: 290.3 ± 30.65

Question: What about the “IL-1β in the colon” value [3] of the same molecule?
Answer: 6.018 ± 0.9675

Question: What about the “dose without any toxic effects” value [4] of the same molecule?
Answer: ≤ 2000 mg/kg

Source: US20250002470A1, “NITROGEN-CONTAINING COMPOUND, PREPARATION METHOD THEREFOR AND APPLICATION THEREOF” (ZHEJIANG AIXPLORER BIOTECH CO., LTD., priority 2021, published 2025)
